Laboratory results: patent publication US7875625B2, “Cyclohepta[b]pyridine-3-carbonylguanidine derivative and pharmaceutical product containing same” (Toa Eiyo Ltd., priority 2005, dated 2011)

Experiments:
[1] = Comparative test for transferability to the brain in rat; assay type: in vivo; conditions: male SD rats, 50 mg/kg via tail vein
Procedure: To male SD rats (6 weeks old), the Control Compound or the Inventive Compound 2 was administered through the tail vein in an amount of 50 mg/kg. After administration, whole blood samples were collected over time from the abdominal aorta under etherization, and the brain tissues were extracted immediately. The brain tissues were lightly washed off to remove the blood attached around with physiological saline, and subsequently the tissues were frozen in liquid nitrogen and preserved at −30° C. until analyzed. The blood was centrifuged at 4° C. at a rotation speed of 15000 for 15 minutes to separate the supernatant plasma, and was preserved at −30° C. until analyzed. The brain tissues were thawed by standing at ambient temperature, and then the wet weight was measured. Distilled water was added in an amount five times of the wet weight, and a suspension was prepared using a Polytron homogenizer. The measurement of the test compound concentration in the plasma and the brain tissues was performed by LC/MS/MS. The transferability of the drug to the brain was calculated by dividing the drug concentration in the brain tissues by the plasma concentration obtained at the same time.

[2] = tested on: Beagle dogs; assay: Toxicity test after 4-days repeated intravenous administration in beagle dogs; assay type: in vivo, dog; conditions: equivalent of 30 mg/kg control compound intravenously once a day for 4 days
Procedure: With one male and one female dogs in each group, 30 mg/kg of the Control Compound dissolved in physiological saline (an amount calculated excluding salts), or an equivalent amount of the Inventive Compound 2, 4, 6 or 8 was repeatedly administered intravenously once a day for 4 days, and general symptom observation and pharmacological histopathologic examination were performed.

[3] = tested on: reperfusion-induced arrhythmia upon myocardial ischemia; assay: Reperfusion-induced arrhythmia inhibitory action test; assay type: in vivo, rat; conditions: male SD rats, 1 mL/kg intravenous
Procedure: Subsequently, in evaluation of the in vivo NHE inhibitory action, the effect of the test compound on reperfusion-induced arrhythmia upon myocardial ischemia was evaluated according to the method of Aihara et al. [European Journal of Pharmacology, Vol. 404, p. 221-229 (2000)]. Under anesthesia using pentobarbital sodium (60 mg/kg, intraperitoneal administration), cannulae were inserted into trachea, femoral vein and carotid artery of male SD rats ([…]) for artificial ventilation, drug administration and blood pressure measurement, respectively. The blood pressure was measured using a strain pressure amplifier via a pressure transducer, while the heart rate was measured from the blood pressure pulse wave using a cardiotachometer. Furthermore, an electrocardiogram (lead II) was measured from the electrodes attached to each four limbs. Next, under artificial ventilation, left thoracotomy was performed and a snare (5-0 nylon) was loosely placed around a blood vessel which was about 3 mm apart from the origin of the left coronary artery. Thereafter, it was confirmed that arrhythmia was not occurred for 10 minutes, and then the snare was fastened to induce local myocardial ischemia. Furthermore, after 4 minutes of myocardial ischemia, the compound was intravenously administered for 1 minute, and after 5 minutes of myocardial ischemia, the snare was loosened, then the arrhythmia occurred after reperfusion was recorded and analyzed with an arrhythmia analyzer (Softron Co., Ltd.), thereby the anti-arrhythmic action of the compound was evaluated. […] The control group was administered with physiological saline.
With regard to the ventricular fibrillation (Vf) which occurred within 10 minutes after reperfusion (in the cases of halfway death, up to the time point where cardiac arrest was confirmed), arrhythmia analysis was performed according to the Guidelines for Lambeth Convention [Cardiovascular research, Vol. 22, p. 447-455, 1988], and evaluation was made in terms of the frequency of Vf occurrence, cumulative duration time of Vf, and the mortality.
The frequency of Vf occurrence, cumulative duration of Vf, and the mortality for the respective test compounds are presented in Table 2.

[4] = Metabolic stability test in rat (generation of control compound in plasma); assay type: in vivo; conditions: male SD rats; for Plasma concentration of the control compound, after 5 min / Plasma concentration of the control compound, after 15 min / Plasma concentration of the control compound, after 30 min / Plasma concentration of the control compound, after 60 min / Plasma concentration of the control compound, after 120 min: equivalent of 1 mg/kg control compound via tail vein, LC/MS/MS; for Decomposition into the Control Compound in vivo (in words): tail vein, plasma 5-120 min
Source text: The compound represented by Formula (1) of the present invention has a structure in which the hydroxyl group on the 9-position of a 9-hydroxymethyl-cyclohepta[b]pyridine-3-carbonylguanidine derivative is converted to a specific substituent. However, if the compound is metabolized in vivo to remove the specific substituent from the compound, there may be generated the original 9-hydroxymethyl-cyclohepta[b]pyridine-3-carbonylguanidine derivative, which has toxic effects on the central nervous system. Thus, the inventive compounds as synthesized in Examples were administered in vivo to study whether the control compound, which was the corresponding 9-hydroxymethyl product, was generated.
Male SD rats (7 weeks old) were administered at 1 mg/kg (an amount calculated excluding salts) of the control compound, an equivalent amount of the Inventive Compound 2, 4, 6, 7 or 12, or Reference Compound 20, through the tail vein. After administration, about 0.2 mL of blood samples were collected after 5, 15, 30, 60 and 120 minutes, and the blood samples were centrifuged at 4° C. at a speed of rotation of 15000 for 15 minutes, thus to separate the supernatant plasma. The concentration of the control compound in the plasma was measured by LC/MS/MS. The measurement results were shown as +++ when the detected plasma concentration of the control compound is 200 ng/mL or greater; ++ for more than 100 ng/mL and less than 200 ng/mL; + for more than 20 ng/mL and less than 100 ng/mL; and − for less than 20 ng/mL or no detection.

[5] = molecular target: T1, Na^+/H^+ exchanger (NHE) (Rattus norvegicus, UniProt P26431); assay: NHE inhibitory effect test (swelling of rat platelets induced by sodium propionate); assay type: cell-based; conditions: rat platelet-rich plasma, sodium propionate buffer pH 6.7; 300 μM Amiloride taken as 100% inhibition; Probit method
T1 construct: from tissue; host or cells: platelet-rich plasma from Wistar rat blood
T1 sequence (P26431 whole entry): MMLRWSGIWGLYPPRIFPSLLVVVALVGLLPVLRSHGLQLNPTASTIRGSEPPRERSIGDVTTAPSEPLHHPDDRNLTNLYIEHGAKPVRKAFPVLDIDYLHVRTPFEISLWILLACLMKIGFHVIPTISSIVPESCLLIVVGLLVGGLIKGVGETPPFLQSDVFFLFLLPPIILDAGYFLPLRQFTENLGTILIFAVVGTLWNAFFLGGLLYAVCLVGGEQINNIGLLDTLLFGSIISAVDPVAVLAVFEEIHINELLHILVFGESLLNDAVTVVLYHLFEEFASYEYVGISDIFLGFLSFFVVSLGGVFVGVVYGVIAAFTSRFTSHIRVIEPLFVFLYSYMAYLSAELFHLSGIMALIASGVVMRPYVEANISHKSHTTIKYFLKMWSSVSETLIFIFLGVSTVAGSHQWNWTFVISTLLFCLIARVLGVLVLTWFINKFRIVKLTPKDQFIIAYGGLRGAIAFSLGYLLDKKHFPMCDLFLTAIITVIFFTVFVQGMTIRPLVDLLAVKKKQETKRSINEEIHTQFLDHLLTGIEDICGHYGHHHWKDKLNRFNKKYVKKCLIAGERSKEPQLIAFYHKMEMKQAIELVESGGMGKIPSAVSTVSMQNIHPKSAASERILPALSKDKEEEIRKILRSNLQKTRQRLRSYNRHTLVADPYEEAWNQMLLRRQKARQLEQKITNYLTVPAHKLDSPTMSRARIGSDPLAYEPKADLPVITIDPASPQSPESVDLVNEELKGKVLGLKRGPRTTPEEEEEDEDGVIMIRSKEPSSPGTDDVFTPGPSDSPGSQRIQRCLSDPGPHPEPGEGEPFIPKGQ
Procedure: The NHE inhibitory activity was measured according to the method by Scholz et al. [British Journal of Pharmacology, Vol. 109, p. 562-568 (1993)], taking the swelling of rat platelets induced by sodium propionate as an index.
Under etherization, blood was collected (8 mL) from the abdominal aorta of a Wistar rat, and 1 mL of a citrate dextrose solution as an anticoagulant was added. The blood sample was immediately centrifuged at 90×g for 10 minutes, and then the collected supernatant was taken as platelet-rich plasma. Subsequently, to 250 μL of a 140 mM sodium propionate buffer solution containing the test compound dissolved in dimethylsulfoxide (pH 6.7, final dimethylsulfoxide concentration 1%), the platelet-rich plasma prepared in the above (number of platelet; 10×10^6/50 μL) was added, and the decrease in the absorbance associated with the swelling of platelets was measured over time with a Hematracer (NKK Corp.).
The rate of decrease in the absorbance at 20 seconds after the addition of the platelet-rich plasma was taken as the NHE activity, and the inhibitory activity of the respective compounds was expressed as a relative activity, while the action obtained upon addition of 300 μM of Amiloride was taken as 100% inhibition.
In addition, the test results were obtained by calculating the concentration at which the inhibitory activity of the test compound becomes 50% (IC50 value), by a Probit method.

[6] = tested on: male mice; assay: Toxicity test with 2-days repeated intraperitoneal administration in mouse; assay type: in vivo; conditions: equivalent of 300 mg/kg control compound intraperitoneally once a day for 2 days
Procedure: For three male mice in each group, 300 mg/kg of the Control Compound (an amount calculated excluding salts), or an equivalent amount of the Inventive Compound 2, 4, 6, 7 or 12 were intraperitoneally administered once a day for 2 days, and a histopathological tests were performed. The Control Compound, and the Inventive Compounds 2, 4 and 6 were suspended in a 0.5% tragacanth gum solution, and the Inventive Compound 7 was suspended in a 10 DMSO-containing 0.5% tragacanth gum solution, while the Inventive Compound 12 was suspended in olive oil. For the histopathological test, in order to make a more thorough examination of central nervous toxicity, the brain was examined after whole body was subjected to perfusion fixation with a 4% formaldehyde in neutral phosphate buffer as a fixing solution using a liquid transporting pump under pentobarbital sodium anesthesia.

[7] = 3.62 mmol/L, within 10 minutes after reperfusion

| Compound | Concentration Intracerebral/Plasma, after 15 min ([1]; 15 min) | Concentration Intracerebral/Plasma, after 30 min ([1]; 30 min) | General condition (symptom observation) [2] | Pathologic examination of the brain [2] | Cumulative duration of Vf [3, 7] [s] | Frequency of Vf occurrence [3, 7] [%] | Mortality [3, 7] [%] | Plasma concentration of the control compound, after 5 min [4] | Plasma concentration of the control compound, after 15 min [4] | Plasma concentration of the control compound, after 30 min [4] | Plasma concentration of the control compound, after 60 min [4] | Plasma concentration of the control compound, after 120 min [4] | IC50 [5] [nM] | Histopathological finding in the brain [6] | Cumulative duration of Vf ([3]; 1.09 mmol/L, 5 animals) [s] | Frequency of Vf occurrence ([3]; 1.09 mmol/L, 5 animals) [%] | Mortality ([3]; 1.09 mmol/L, 5 animals) [%] | Decomposition into the Control Compound in vivo (in words) [4] |
| --- | --- | --- | --- | --- | --- | --- | --- | --- | --- | --- | --- | --- | --- | --- | --- | --- | --- | --- |
| CS(=O)(=O)O.Cc1nc2c(cc1C(=O)NC(=N)N)CCCCC2CO (stereo not shown) [Control Compound, 9-Hydroxymethyl-2-methyl-6,7,8,9-tetrahydro-5H-cyclohepta[b]pyridine-3-carbonylguanidine methanesulfonic acid salt, reference compound] | 1.64 | 2.33 | vomiting, salivation, and decreases in locomotor activity, staggering gait and ananastasia | necrosis/chromatolysis of nerve cells, swelling of axons and vacuolation of myelin sheath | 30.2 | 50 | 25 | +++ (+++ when the detected plasma concentration of the control compound is 200 ng/mL or greater) | ++ (++ for more than 100 ng/mL and less than 200 ng/mL) | + (+ for more than 20 ng/mL and less than 100 ng/mL) | + (+ for more than 20 ng/mL and less than 100 ng/mL) | − (− for less than 20 ng/mL or no detection) | 33.4 | vacuolation was recognized in the cerebellar nuclei and vestibular nuclei | – | – | – | – |
| Cc1nc2c(cc1C(=O)NC(=N)N)CCCCC2COC(=O)NCCOS(=O)(=O)[O-].[Na+] (stereo not shown) [Inventive Compound 6, 2-(3-Guanidinocarbonyl-2-methyl-6,7,8,9-tetrahydro-5H-cyclohepta[b]pyridin-9-ylmethyloxycarbonylamino)ethyl sulfate sodium salt] | – | – | only vomiting was recognized | any histologic finding which could be caused by drug administration was not recognized | – | – | – | − (− for less than 20 ng/mL or no detection) | − (− for less than 20 ng/mL or no detection) | − (− for less than 20 ng/mL or no detection) | − (− for less than 20 ng/mL or no detection) | − (− for less than 20 ng/mL or no detection) | 142 | any histologic finding which could be caused by drug administration was not recognized | 23.3 | 20 | 0 | not detected at any time point |
| Cc1nc2c(cc1C(=O)NC(=N)N)CCCCC2CS(=O)(=O)[O-].[Na+] (stereo not shown) [Inventive Compound 4, 3-Guanidinocarbonyl-2-methyl-6,7,8,9-tetrahydro-5H-cyclohepta[b]pyridin-9-ylmethanesulfonic acid sodium salt] | – | – | only vomiting was recognized | any histologic finding which could be caused by drug administration was not recognized | 25.3 | 60 | 0 | − (− for less than 20 ng/mL or no detection) | − (− for less than 20 ng/mL or no detection) | − (− for less than 20 ng/mL or no detection) | − (− for less than 20 ng/mL or no detection) | − (− for less than 20 ng/mL or no detection) | 211 | any histologic finding which could be caused by drug administration was not recognized | – | – | – | not detected at any time point |
